Our source for the LC90, LC50 and Activity values is ChEMBL document CHEMBL3045737, “Evaluation of toxicity and genotoxic effects of spinosad and deltamethrin in Drosophila melanogaster and Bactrocera oleae” (Pest Manag Sci, 2011).

The test system of data set [1] is Drosophila melanogaster. As to the kind of experiment: Insecticidal activity against Drosophila melanogaster adults assessed as death treated upto 192 hr at 24 +/- 1 degC, 60%RH. The class given is functional. The note with it: for LC50: Drosophila melanogaster, 192 h.
Data set [2] relates to Bactrocera oleae. As to the kind of experiment: Insecticidal activity against Bactrocera oleae adults assessed as death treated upto 120 hr at 24 +/- 1 degC, 60%RH. The data set is classed as functional. The note with it: for LC50: Bactrocera oleae, 120 h.
In data set [3] the test system is Drosophila melanogaster. As to the kind of experiment: Insecticidal activity against Drosophila melanogaster adults assessed as death treated upto 120 hr at 24 +/- 1 degC, 60%RH. The data set is classed as functional. To be noted: for LC50: Drosophila melanogaster, 120 h.
Data set [4] relates to Bactrocera oleae. The data set is described as follows: Insecticidal activity against Bactrocera oleae adults assessed as death treated upto 192 hr at 24 +/- 1 degC, 60%RH. The class given is functional. To be noted: for LC50: Bactrocera oleae, 192 h.
Data set [5] deals with Drosophila melanogaster. As to the kind of experiment: Insecticidal activity against Drosophila melanogaster adults assessed as death treated upto 72 hr at 24 +/- 1 degC, 60%RH. The data set is classed as functional. The note with it: for LC50: Drosophila melanogaster, 72 h.
Data set [6] relates to Drosophila melanogaster. As to the kind of experiment: Genotoxicity in Drosophila melanogaster larvae at 0.10 to 0.30 mg/l. The data set is classed as organism-based. To be noted: in vivo.
The subject of data set [7] is Bactrocera oleae. As to the kind of experiment: Insecticidal activity against Bactrocera oleae adults assessed as death treated upto 24 hr at 24 +/- 1 degC, 60%RH. The data set is classed as functional. To be noted: for LC50: Bactrocera oleae, 24 h.
Data set [8] has as its system Bactrocera oleae. The data set is described as follows: Insecticidal activity against Bactrocera oleae adults assessed as death treated upto 72 hr at 24 +/- 1 degC, 60%RH. The class given is functional. To be noted: for LC50: Bactrocera oleae, 72 h.
Data set [9] concerns Drosophila melanogaster. As to the kind of experiment: Insecticidal activity against Drosophila melanogaster larvae assessed as death at 24 +/- 1 degC, 60%RH. The class given is functional. The note with it: for LC50: Drosophila melanogaster.
Data set [10] deals with Drosophila melanogaster. As to the kind of experiment: Insecticidal activity against Drosophila melanogaster adults assessed as death treated upto 24 hr at 24 +/- 1 degC, 60%RH. The note with it: for LC50: Drosophila melanogaster, 24 h. The class given is functional.
Data set [11] deals with Drosophila melanogaster. As to the kind of experiment: Genotoxicity in Drosophila melanogaster larvae at 7.50 to 10 mg/l. The data set is classed as organism-based. To be noted: in vivo.
In data set [12] the test system is Drosophila melanogaster. The data set is described as follows: Genotoxicity in Drosophila melanogaster larvae at 10^-3 M. The data set is classed as organism-based. To be noted: in vivo, 1000 µM.

Converted amounts (≈) assume the structure as drawn.

The LC50 is the concentration that kills 50% of the test population. Turning to `CC[C@H]1CCC[C@H](O[C@H]2CC[C@H](N(C)C)[C@@H](C)O2)[C@@H](C)C(=O)C2=C[C@@H]3[C@@H](C=C(C)[C@@H]4C[C@@H](O[C@@H]5O[C@@H](C)[C@H](OC)[C@@H](OC)[C@H]5OC)C[C@@H]34)[C@@H]2CC(=O)O1.CC[C@H]1CCC[C@H](O[C@H]2CC[C@H](N(C)C)[C@@H](C)O2)[C@@H](C)C(=O)C2=C[C@@H]3[C@@H](C=C[C@@H]4C[C@@H](O[C@@H]5O[C@@H](C)[C@H](OC)[C@@H](OC)[C@H]5OC)C[C@@H]34)[C@@H]2CC(=O)O1`, the LC90 came out at 0.367 µg/mL in the data set on Drosophila melanogaster [1]; 0.422 µg/mL in the data set with Bactrocera oleae [2]; 1.074 µg/mL in the data set with Drosophila melanogaster [3]; 0.345 µg/mL in the data set with Bactrocera oleae [4]; 1.998 µg/mL in the data set on Drosophila melanogaster [5]; 7.277 µg/mL in the data set with Bactrocera oleae [7]. Also, the LC90 in the data set on Bactrocera oleae [8] is 0.598 µg/mL; in the data set with Drosophila melanogaster [9], 0.308 µg/mL; in the data set on Drosophila melanogaster [10] it was 5.604 µg/mL. The LC50 in the data set on Drosophila melanogaster [1] came out at 0.262 µg/mL; in the data set on Bactrocera oleae [2], 0.191 µg/mL; in the data set on Drosophila melanogaster [3], 0.75 µg/mL; in the data set with Bactrocera oleae [4], 0.111 µg/mL; with Drosophila melanogaster [5] it was 1.26 µg/mL; in the data set on Bactrocera oleae [7] it was 4.06 µg/mL. Further, the results for the LC50 in the data set on Bactrocera oleae [8], in the data set on Drosophila melanogaster [9] and with Drosophila melanogaster [10] were 0.341 µg/mL, 0.13 µg/mL and 3.8 µg/mL, respectively. The Activity result with Drosophila melanogaster [6] is reported as “Non-toxic”.

On to `CC1(C)[C@H](C(=O)O[C@H](C#N)c2cccc(Oc3ccccc3)c2)[C@@H]1C=C(Br)Br` [DELTAMETHRIN], for which the LC90 with Drosophila melanogaster [1] is 10.352 µg/mL (≈ 20.5 µM); in the data set with Bactrocera oleae [2], 0.161 µg/mL (≈ 0.319 µM); in the data set with Drosophila melanogaster [3], 13.599 µg/mL (≈ 26.9 µM); with Bactrocera oleae [4] it was 0.398 µg/mL (≈ 0.788 µM); with Drosophila melanogaster [5], 14.591 µg/mL (≈ 28.9 µM); in the data set with Bactrocera oleae [7] it was 6.033 µg/mL (≈ 11.9 µM). In addition, the LC90 stood at 1.002 µg/mL (≈ 1.98 µM) in the data set on Bactrocera oleae [8], 17.41 µg/mL (≈ 34.5 µM) in the data set with Drosophila melanogaster [9] and 31.682 µg/mL (≈ 62.7 µM) in the data set on Drosophila melanogaster [10]. For the same molecule, the LC50 in the data set on Drosophila melanogaster [1] was determined as 4.82 µg/mL (≈ 9.53 µM); with Bactrocera oleae [2], 0.176 µg/mL (≈ 0.348 µM); in the data set on Drosophila melanogaster [3], 7.24 µg/mL (≈ 14.3 µM); in the data set with Bactrocera oleae [4] it was 0.414 µg/mL (≈ 0.819 µM); in the data set on Drosophila melanogaster [5] it was 8.03 µg/mL (≈ 15.9 µM); in the data set with Bactrocera oleae [7], 2.85 µg/mL (≈ 5.64 µM). Further, the LC50 in the data set with Bactrocera oleae [8] amounted to 0.344 µg/mL (≈ 0.681 µM); in the data set on Drosophila melanogaster [9], 4.96 µg/mL (≈ 9.81 µM); in the data set on Drosophila melanogaster [10] it was 17.1 µg/mL (≈ 33.8 µM). Further, the Activity result in the data set on Drosophila melanogaster [11] is “Non-toxic”.

For `CCOS(C)(=O)=O` [METHANESULFONIC ACID ETHYL ESTER], the Activity result with Drosophila melanogaster [12] is “Toxic”.
